According to US9783532B2, “Molecules having certain pesticidal utilities, and intermediates, compositions, and processes related thereto” (Dow AgroSciences LLC, priority 2013, dated 2017):

Tests used:
[1] = system: Beet Armyworm (Spodoptera exigua) ("BAW"); assay: Bioassay on beet armyworm (BAW), 128-well diet tray assay; assay type: in vivo; details: Table ABC (PC), activity rating class, read-out: BAW (Biological Results, Insect species)
How it was run: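 Second-instar larvae (one to five per well) were placed on artificial diet surface-treated with 50 μg/cm^2 compound applied in 90:10 acetone-water and dried, eight wells per compound. Held at 25° C., 14:10 light-dark for five to seven days; percent mortality was scored per well and averaged over the eight wells.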

[2] = system: Cabbage Looper (Trichoplusia ni) ("CL"); assay: Bioassay on cabbage looper (CL), 128-well diet tray assay; assay type: in vivo; details: Table ABC (PC), activity rating class, read-out: CL (Biological Results, Insect species)
How it was run: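 Second-instar larvae (one to five per well) placed on artificial diet surface-treated with 50 μg/cm^2 compound in 90:10 acetone-water, dried before infestation. Held 25 °C, 14:10 light-dark for five to seven days; percent mortality scored per well and averaged over eight wells.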

SMILES | pest or weed control at 50 µg/cm2 [1] | pest or weed control at 50 µg/cm2 [2]
CCCc1ccc(C)cc1NC(=S)NC(=O)NCc1ccc(-c2ncn(-c3ccc(OC(F)(F)F)cc3)n2)cc1 [PC8, 1-[(5-methyl-2-propyl-phenyl)carbamothioyl]-3-[[4-[1-[4-(trifluoromethoxy)phenyl]-1H-1,2,4-triazol-3-yl]phenyl]methyl]urea] | 50 to 100% | 50 to 100%
Cc1ccc(NC(=S)NC(=O)NCc2ccc(-c3ncn(-c4ccc(C(F)(F)F)cc4)n3)cc2)c(C(C)C)c1 [PC15, 1-[(2-isopropyl-4-methyl-phenyl)carbamothioyl]-3-[[4-[1-[4-(trifluoromethyl)phenyl]-1,2,4-triazol-3-yl]phenyl]methyl]urea] | 50 to 100% | 50 to 100%
Cc1ccccc1NC(=S)NC(=O)NCCc1cccc(-c2ncn(-c3ccc(OC(F)(F)F)cc3)n2)c1 [PC74, 1-(o-tolylcarbamothioyl)-3-[2-[3-[1-[4-(trifluoromethoxy)phenyl]-1H-1,2,4-triazol-3-yl]phenyl]ethyl]urea] | 50 to 100% | 50 to 100%
CCc1cccc(C)c1NC(=S)NC(=O)NCCc1cccc(-c2ncn(-c3ccc(OC(F)(F)F)cc3)n2)c1 [PC83, 1-[(2-ethyl-6-methyl-phenyl)carbamothioyl]-3-[2-[3-[1-[4-(trifluoromethoxy)phenyl]-1H-1,2,4-triazol-3-yl]phenyl]ethyl]urea] | 50 to 100% | 50 to 100%
Cc1ccccc1NC(=S)NC(=O)NCCCc1ccc(-c2ncn(-c3ccc(OC(F)(F)F)cc3)n2)cc1 [PC92, 1-(o-tolylcarbamothioyl)-3-[3-[4-[1-[4-(trifluoromethoxy)phenyl]-1H-1,2,4-triazol-3-yl]phenyl]propyl]urea] | 50 to 100% | 50 to 100%
CCc1ccccc1NC(=S)NC(=O)NCCCc1ccc(-c2ncn(-c3ccc(OC(F)(F)F)cc3)n2)cc1 [PC93, 1-[(2-ethylphenyl)carbamothioyl]-3-[3-[4-[1-[4-(trifluoromethoxy)phenyl]-1H-1,2,4-triazol-3-yl]phenyl]propyl]urea] | 50 to 100% | 50 to 100%
CC(C)c1ccccc1NC(=S)NC(=O)NCCCc1ccc(-c2ncn(-c3ccc(OC(F)(F)F)cc3)n2)cc1 [PC94, 1-[(2-isopropylphenyl)carbamothioyl]-3-[3-[4-[1-[4-(trifluoromethoxy)phenyl]-1H-1,2,4-triazol-3-yl]phenyl]propyl]urea] | 50 to 100% | 50 to 100%
CCc1cccc(C)c1NC(=S)NC(=O)NCCCc1ccc(-c2ncn(-c3ccc(OC(F)(F)F)cc3)n2)cc1 [PC101, 1-[(2-ethyl-6-methyl-phenyl)carbamothioyl]-3-[3-[4-[1-[4-(trifluoromethoxy)phenyl]-1H-1,2,4-triazol-3-yl]phenyl]propyl]urea] | 50 to 100% | 50 to 100%
CCc1ccccc1NC(=S)NC(=O)NCCCc1cccc(-c2ncn(-c3ccc(OC(F)(F)F)cc3)n2)c1 [PC119, 1-[(2-ethylphenyl)carbamothioyl]-3-[3-[3-[1-[4-(trifluoromethoxy)phenyl]-1H-1,2,4-triazol-3-yl]phenyl]propyl]urea] | 50 to 100% | 50 to 100%
CC(C)c1ccccc1NC(=S)NC(=O)NCCCc1cccc(-c2ncn(-c3ccc(OC(F)(F)F)cc3)n2)c1 [PC120, 1-[(2-isopropylphenyl)carbamothioyl]-3-[3-[3-[1-[4-(trifluoromethoxy)phenyl]-1H-1,2,4-triazol-3-yl]phenyl]propyl]urea] | 50 to 100% | 50 to 100%
Cc1ccc(C(C)C)c(NC(=S)NC(=O)NCCCc2cccc(-c3ncn(-c4ccc(OC(F)(F)F)cc4)n3)c2)c1 [PC124, 1-[(2-isopropyl-5-methyl-phenyl)carbamothioyl]-3-[3-[3-[1-[4-(trifluoromethoxy)phenyl]-1H-1,2,4-triazol-3-yl]phenyl]propyl]urea] | 50 to 100% | 50 to 100%
